From patent publication US10590145B2, “Tetrahydrothiopyranopyrimidine derivatives as anti-HIV agent” (SHANDONG UNIVERSITY, priority 2016, dated 2020)
Like-named read-outs stand apart in the source and are kept apart here.

What was measured:
Assay type in all cases: cell-based
[1] = system: HIV-1 double mutant RES056 (Y181C/K103N); experiment: Anti-HIV-1 activity in MT-4 cells (MTT method), RES056; settings: for EC50: Human immunodeficiency virus 1, MT4, read-out: EC50 (nM) Y181C/K103N
Procedure: (§1) Selected compounds were screened for inhibitory activity against HIV-1 using MTT method as describe previously by Christophe. Pannecouque et al. Nat. Protoc. 3 (2008) 427-434, and Rudi Pauwels et al. J. Virol. Methods 20 (1988) 309-321. Briefly, MT-4 cells infected with HIV-1 can only survive for 5 to 7 days without any treatment, but when HIV-1 inhibitors were added, they can protect MT-4 cell from cytopathic. Serial solution of compounds was added to MT-4 cells after infected with HIV-1, MTT method was used to detect the survival rate after culture for 5 to 7 days. EC50 value was defined as compound concentration required to achieve 50% protection of MT-4 cells against HIV-1-induced cytopathic effect. In vitro anti-HIV-1 assay was supported by Rega Institute for Medical Research.
(§2) • (1) MT-4 cells infected with HIV-1 viral strains (IIIB, L100I, K103N, Y181C, Y188L, E138K, F227L/V106A, Y181C/K103N) were provided by Rega Institute for Medical Research, Katholieke Universiteit Leuven, Belgium. • (2) MTT and formazan: sigma Chemical Co. • (3) Preparation of compounds: Stock solutions (10×final concentration) of test compounds is diluted with double distilled water for 5 folds and 5 concentrations of one compound are prepared. • (4) Reference drugs: Nevirapine (NVP), Efavirenz (EFV), Etravirine (ETV), Rilpivirine (RPV) and Azidothymidine (AZT). • (5) Method (MTT method): Serial five-fold dilutions of test compounds were added to cultured MT-4 cells infected with HIV-1, after 5 to 7 days, MTT was added and cultured for a few hours. Medium was removed and lysate was added followed by formazan, OD value was determined in 690 nm and 540 nm by microplate reader, and EC50 value was calculated. 2. Method
(§3) The MTT method was described briefly as follows: 96-well plastic microtiter trays were filled with 100 μL of complete medium. Subsequently, serial of tested compounds was added (25 μL) to two series of triplicate wells so as to allow simultaneous evaluation of their effects on HIV- and mock infected cells. 50 μL of 1×10^4 cells/mL MT-4 cells were added. After cultured for 5 days at 37° C. in humidified atmosphere in the presence of 5% CO2, MTT was added and cultured for another 2 h, then medium was removed and 100 μL isopropanol solution was added to lyse the cells. Formazan crystals were added and vibrated platform shaker for 10 min to solubilize the formazan crystals. Absorbances at 690 nm and 540 nm were read by using spectrophotometrically. EC50 was defined as the concentration achieving 50% protection from the cytopathic effect of the virus in infected cells.
(§4) Selected compounds prepared as described above were assayed in MT-4 cells infected with wide-type IIIB, L100I, K103N, Y181C, Y188L, E138K or double mutant RES056 (Y181C/K103N) and F227L/V106A HIV-1 strains. Nevirapine, Efavirenz, Etravirine, Rilpivirine and Azidothymidine were selected as reference drugs. The results were listed below as EC50 value (nM)

[2] = system: HIV-1 Y188L mutant strain; experiment: Anti-HIV-1 activity in MT-4 cells (MTT method), Y188L; settings: for EC50: Human immunodeficiency virus 1, MT4, read-out: EC50 (nM) Y188L
Procedure: as §1, §2, §3, §4

[3] = system: HIV-1 Y181C mutant strain; experiment: Anti-HIV-1 activity in MT-4 cells (MTT method), Y181C; settings: for EC50: Human immunodeficiency virus 1, MT4, read-out: EC50 (nM) Y181C
Procedure: as §1, §2, §3, §4

[4] = system: HIV-1 E138K mutant strain; experiment: Anti-HIV-1 activity in MT-4 cells (MTT method), E138K; settings: Human immunodeficiency virus 1, MT4, read-out: EC50 (nM) E138K
Procedure: as §1, §2, §3, §4

[5] = system: HIV-1 L100I mutant strain; experiment: Anti-HIV-1 activity in MT-4 cells (MTT method), L100I; settings: for EC50: Human immunodeficiency virus 1, MT4, read-out: EC50 (nM) L100I
Procedure: as §1, §2, §3, §4

[6] = system: HIV-1 K103N mutant strain; experiment: Anti-HIV-1 activity in MT-4 cells (MTT method), K103N; settings: for EC50: Human immunodeficiency virus 1, MT4, read-out: EC50 (nM) K103N
Procedure: as §1, §2, §3, §4

[7] = system: HIV-1 F227L/V106A double mutant strain; experiment: Anti-HIV-1 activity in MT-4 cells (MTT method), F227L/V106A; settings: for EC50: Human immunodeficiency virus 1, MT4, read-out: EC50 (nM) F227L/V106A
Procedure: as §1, §2, §3, §4

[8] = system: wide-type HIV-1 (strain IIIB); experiment: Anti-HIV-1 activity in MT-4 cells (MTT method), wild-type
Procedure: as §1, §2, §3, §4

[9] = Human immunodeficiency virus 1, IIIB, MT4, read-out: EC50 (nM) wt

| SMILES | EC50 [1] [nM] | EC50 [2] [nM] | EC50 [3] [nM] | EC50 [4] [nM] | EC50 [5] [nM] | EC50 [6] [nM] | EC50 [7] [nM] | EC50 [8, 9] [nM] | fold more potent than ETV against Y181C/K103N ([1]; Y181C/K103N, relative to ETV) [fold] | Activity against Y188L compared with ETV ([2]; Y188L, relative to ETV) | fold more potent than ETV against Y181C ([3]; Y181C, relative to ETV) [fold] | fold more potent than ETV against L100I ([5]; L100I, relative to ETV) [fold] | Activity against K103N compared with ETV ([6]; K103N, relative to ETV) | fold more potent than ETV against F227L/V106A ([7]; F227L/V106A, relative to ETV) [fold] | EC50 ([8]; Human immunodeficiency virus 1, MT4, MT-4 cells, 50% protection against HIV-1-induced cytopathicity, wt (IIIB), read-out: EC50 (nM) wt) [nM] |
| --- | --- | --- | --- | --- | --- | --- | --- | --- | --- | --- | --- | --- | --- | --- | --- |
| Cc1cc(C#N)cc(C)c1Oc1nc(NC2CCN(Cc3cccc(C#N)c3)CC2)nc2c1SCCC2 [IIA-1-6, 4-((2-((1-(3-cyanobenzyl)piperidin-4-yl)amino)-7,8-dihydro-6H-thiopyrano[3,2-d]pyrimidin-4-yl)oxy)-3,5-dimethylbenzonitrile] | > 100 | 10 to 100 | 10 to 100 | 10 to 100 | > 100 | 10 to 100 | > 100 | < 10 |  |  |  |  |  |  |  |
| Cc1cc(C#N)cc(C)c1Oc1nc(NC2CCN(Cc3cccc(C(N)=O)c3)CC2)nc2c1SCCC2 [IIA-1-9, 3-((4-((4-(4-cyano-2,6-dimethylphenoxy)-7,8-dihydro-6H-thiopyrano[3,2-d]pyrimidin-2-yl)amino)piperidin-1-yl)methyl)benzamide] | > 100 | 10 to 100 | 10 to 100 | 10 to 100 | 10 to 100 | 10 to 100 | > 100 | < 10 |  |  |  |  |  |  |  |
| Cc1cc(C#N)cc(C)c1Oc1nc(NC2CCN(c3cccc(C(N)=O)c3)CC2)nc2c1SCCC2 [IIC-1-2, 3-(4-((4-(4-cyano-2,6-dimethylphenoxy)-7,8-dihydro-6H-thiopyrano[3,2-d]pyrimidin-2-yl)amino)piperidin-1-yl)benzamide] | 10 to 100 | < 10 | < 10 | 10 to 100 | 10 to 100 | < 10 | > 100 | < 10 |  |  |  |  |  |  |  |
| Cc1cc(C#N)cc(C)c1Oc1nc(NC2CCN(Cc3ccc(C(N)=O)cc3)CC2)nc2c1SCCC2 [IIA-1-8, 4-((4-((4-(4-cyano-2,6-dimethylphenoxy)-7,8-dihydro-6H-thiopyrano[3,2-d]pyrimidin-2-yl)amino)piperidin-1-yl)methyl)benzamide] | 10 to 100 | 10 to 100 | 10 to 100 | 10 to 100 | 10 to 100 | < 10 | > 100 | < 10 |  |  |  |  |  |  |  |
| Cc1cc(C#N)cc(C)c1Oc1nc(NC2CCN(Cc3ccc(NS(C)(=O)=O)cc3)CC2)nc2c1SCCC2 [IIA-1-14, N-(4-((4-((4-(4-cyano-2,6-dimethylphenoxy)-7,8-dihydro-6H-thiopyrano[3,2-d]pyrimidin-2-yl)amino)piperidin-1-yl)methyl)phenyl) methanesulfonamide] | > 100 | 10 to 100 | < 10 | < 10 | 10 to 100 | < 10 | > 100 | < 10 |  |  |  |  |  |  |  |
| Cc1cc(C)c(Oc2nc(NC3CCN(Cc4ccc(S(N)(=O)=O)cc4)CC3)nc3c2SCCC3)c(C)c1 [IIA-1-2, 4-((4-((4-(mesityloxy)-7,8-dihydro-6H-thiopyrano[3,2-d]pyrimidin-2-yl)amino)piperidin-1-yl)methyl)benzenesulfonamide] | > 100 | 10 to 100 | 10 to 100 | 10 to 100 | 10 to 100 | < 10 | 10 to 100 | < 10 |  |  |  |  |  |  |  |
| Cc1cc(C#N)cc(C)c1Oc1nc(NC2CCN(Cc3ccc(C#N)cc3)CC2)nc2c1SCCC2 [IIA-1-5, 4-((2-((1-(4-cyanobenzyl)piperidin-4-yl)amino)-7,8-dihydro-6H-thiopyrano[3,2-d]pyrimidin-4-yl)oxy)-3,5-dimethylbenzonitrile] | > 100 | 10 to 100 | 10 to 100 | 10 to 100 | 10 to 100 | 10 to 100 | > 100 | < 10 |  |  |  |  |  |  |  |
| Cc1cc(C#N)cc(C)c1Oc1nc(NC2CCN(Cc3ccc(N)cc3)CC2)nc2c1SCCC2 [IIA-1-13, 4-((2-((1-(4-aminobenzyl)piperidin-4-yl)amino)-7,8-dihydro-6H-thiopyrano[3,2-d]pyrimidin-4-yl)oxy)-3,5-dimethylbenzonitrile] | > 100 | 10 to 100 | 10 to 100 | 10 to 100 | 10 to 100 | < 10 | > 100 | < 10 |  |  |  |  |  |  |  |
| Cc1cc(/C=C/C#N)cc(C)c1Oc1nc(NC2CCN(Cc3ccc(S(N)(=O)=O)cc3)CC2)nc2c1SCCC2 [IIA-1-3, (E)-4-((4-((4-(4-(2-cyanovinyl)-2,6-dimethylphenoxy)-7,8-dihydro-6H-thiopyrano[3,2-d]pyrimidin-2-yl)amino)piperidin-1-yl)methyl)benzenesulfonamide] | 10 to 100 | 10 to 100 | < 10 | 10 to 100 | < 10 | < 10 | < 10 | < 10 | 2 | comparable | 2 | 2 | comparable | 2 |  |
| Cc1cc(C#N)cc(C)c1Oc1nc(NC2CCN(Cc3ccc(S(N)(=O)=O)cc3)CC2)nc2c1SCCC2 [IIA-1-1, 4-((4-((4-(4-cyano-2,6-dimethylphenoxy)-7,8-dihydro-6H-thiopyrano[3,2-d]pyrimidin-2-yl)amino)piperidin-1-yl)methyl)benzenesulfonamide] | 10 to 100 | < 10 | 10 to 100 | < 10 | 10 to 100 | < 10 | 10 to 100 | < 10 |  |  |  |  |  |  |  |
| Cc1cc(/C=C/C#N)cc(C)c1Nc1ccnc(Nc2ccc(C#N)cc2)n1 [RPV, Rilpivirine, reference compound] | 10 to 100 | 10 to 100 | < 10 | < 10 | < 10 | < 10 | 10 to 100 | < 10 |  |  |  |  |  |  |  |
| O=C1Nc2ccc(Cl)cc2[C@@](C#CC2CC2)(C(F)(F)F)O1 [EFV, Efavirenz, reference compound] | > 100 | 10 to 100 | < 10 | < 10 | 10 to 100 | 10 to 100 | 10 to 100 |  |  |  |  |  |  |  | < 10 |
| Cc1cc(/C=C/C#N)cc(C)c1Oc1nc(Nc2ccc(C#N)cc2)nc2c1SCCC2 [IA-1-2, (E)-4-((4-(4-(2-cyanovinyl)-2,6-dimethylphenoxy)-7,8-dihydro-6H-thiopyrano[3,2-d]pyrimidin-2-yl)amino)benzonitrile] | 10 to 100 | 10 to 100 | 10 to 100 | 10 to 100 | < 10 | < 10 | 10 to 100 | < 10 |  |  |  |  |  |  |  |
| Cc1cc(C#N)cc(C)c1Oc1nc(NC2CCN(Cc3ccc(S(C)(=O)=O)cc3)CC2)nc2c1SCCC2 [IIA-1-11, 3,5-dimethyl-4-((2-((1-(4-(methylsulfonyl)benzyl)piperidin-4-yl)amino)-7,8-dihydro-6H-thiopyrano[3,2-d]pyrimidin-4-yl)oxy)benzonitrile] | 10 to 100 | 10 to 100 | 10 to 100 | 10 to 100 | 10 to 100 | < 10 | 10 to 100 | < 10 |  |  |  |  |  |  |  |
